Data reported in PMC6547440, “The HRP3 PWWP domain recognizes the minor groove of double-stranded DNA and recruits HRP3 to chromatin” (Nucleic Acids Research, 2019).
No end group written: not given here. Me3 = trimethyl-lysine (Lys side chain trimethylated); {FAM} = FAM (fluorescein) label on dsDNA for MST

Tests used:
HRP3 PWWP [1] = assay: MST binding of 5′-FAM-labelled dsDNAs to HRP3 PWWP; design: species or system human; conditions: 16-mer-TA versus 16-mer-random and 16-mer-GC
Procedure: All Mircoscale thermophoresis (MST) experiments were performed on a Monolith NT115 machine with 20% MST power and 100% LED power. All protein and DNA samples were dissolved in solution containing 50 mM KCl, 10 mM sodium cacodylate at pH 6.5 and 2 mM DTT. The MST samples were prepared by mixing HRP3(1-110) at concentrations ranging from 3 nM to 100 μM into a solution containing 200 nM 5′-FAM-labelled dsDNA. Experiments were performed using Monolith NT115 Standard Treated Capillaries, MO-K002. Dissociation constants were fitted with the MO Affinity Analysis software.
The DNA sequences used in this assay are as follows: 5′-FAM-16TA: 5′-[…]-3′; 5′-FAM-16GC: 5′-[…]-3′; and 5′-FAM-16random: 5′-[…]-3′.

HRP3 PWWP [2] = assay: ITC of HRP3 PWWP with dsDNAs; type: binding, human; conditions: 20°C, HRP3 PWWP (1–110), 10 mM PBS pH 7.0, 50 mM NaCl, 2 mM β-mercaptoethanol
Procedure: Isothermal titration calorimetry-based measurements were carried out at 20°C with a MicroCal iTC200 instrument. HRP3 PWWP (1–110) and various dsDNAs were dialysed overnight at 4°C in titration buffer containing 10 mM phosphate-buffered saline (PBS) at pH 7.0, 50 mM NaCl and 2 mM β-mercaptoethanol. Calorimetric titration data were fitted with the Origin software under the algorithm of one binding-site model.

HRP3 PWWP [3] = assay: DNA geometry analysis of the PWWP/DNA complex structures; design: species or system human
Procedure: DNA geometry was analysed with the 3DNA ([42]) and Curves+ ([43]) programs. Electrostatic potentials were calculated using the DelPhi program ([44]). The minor groove width was measured according to the method described ([45]). In detail, the distances between the ith (i indicates the number of the base from one chain) phosphate atom from one chain and the (i + 4)th atom from the paired chain were used to describe the minor groove width at the ith base. Electrostatic potentials were calculated at the midpoints between the above phosphate atom pairs used to calculate the minor groove widths.

HRP3 PWWP WT = target: T1, HRP3 PWWP WT (Homo sapiens, UniProt Q9Y3E1); assay: NMR titration of H3K36 peptides with wild-type HRP3 PWWP; type: binding; conditions: 15N-labelled HRP3 PWWP (1–110) WT, H3 residues 29–41, 20 mM PBS pH 6.9, 20 mM NaCl, 2 mM DTT, 298 K
T1 construct: using ^15N-labelled HRP3 PWWP (residues 1–110) dissolved in buffer; 6xHis-SUMO (cleaved yes); made in house; host or cells: Escherichia coli Rosetta (DE3)
T1 sequence (Q9Y3E1 1-110): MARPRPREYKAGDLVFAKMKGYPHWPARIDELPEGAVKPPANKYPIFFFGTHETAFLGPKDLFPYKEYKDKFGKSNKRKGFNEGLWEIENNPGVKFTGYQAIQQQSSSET
Procedure: (§1) All 2D ^1H-^15N HSQC NMR spectra were collected on the Bruker Avance III HD 600 MHz and 800 MHz spectrometers at 298 K. The NMR data were processed by NMRPipe ([39]) and analysed by KUJIRA ([40]) running with NMRview ([41]) softwares. Chemical shift perturbation experiments were carried out using ^15N-labelled HRP3 PWWP (residues 1–110) dissolved in buffer containing 20 mM PBS at pH 6.9, 20 mM NaCl and 2 mM DTT. A series of 2D ^1H-^15N HSQC spectra were recorded at HRP3 PWWP:H3K36me3/2/1/0 (residues 29–41) molar ratios of 1:0, 1:0.5, 1:1.5, 1:4, 1:6, 1:10, 1:15 and 1:20, respectively. The combined chemical shift perturbation was calculated using the following equation: Δδ = [(Δδ^1H)^2 + (Δδ^15N/5)^2]^1/2. Dissociation constants were calculated by fitting the data to a single-site ligand-binding model (SigmaPlot).

HRP3 PWWP Y22A = target: T2, HRP3 PWWP Y22A (Homo sapiens, UniProt Q9Y3E1, Y22A); assay: NMR titration of H3K36me3 peptide with HRP3 PWWP Y22A; type: binding; conditions: H3 residues 29–41, 20 mM PBS pH 6.9, 298 K
T2 construct: using ^15N-labelled HRP3 PWWP (residues 1–110) dissolved in buffer; 6xHis-SUMO (cleaved yes); made in house; host or cells: Escherichia coli Rosetta (DE3)
T2 sequence (Q9Y3E1 1-110 Y22A): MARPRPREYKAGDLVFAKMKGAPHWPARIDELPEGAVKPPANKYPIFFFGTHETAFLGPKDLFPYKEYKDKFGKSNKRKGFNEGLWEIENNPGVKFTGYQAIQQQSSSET
Procedure: as §1

HRP3 PWWP F48A = target: T3, HRP3 PWWP F48A (Homo sapiens, UniProt Q9Y3E1, F48A); assay: NMR titration of H3K36me3 peptide with HRP3 PWWP F48A; type: binding; conditions: H3 residues 29–41, 20 mM PBS pH 6.9, 298 K
T3 construct: using ^15N-labelled HRP3 PWWP (residues 1–110) dissolved in buffer; 6xHis-SUMO (cleaved yes); made in house; host or cells: Escherichia coli Rosetta (DE3)
T3 sequence (Q9Y3E1 1-110 F48A limits assumed): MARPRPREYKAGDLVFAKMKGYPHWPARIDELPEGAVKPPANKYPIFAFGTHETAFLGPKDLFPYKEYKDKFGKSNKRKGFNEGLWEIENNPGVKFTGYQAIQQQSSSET
Procedure: as §1

HRP3 PWWP E53A = target: T4, HRP3 PWWP E53A (Homo sapiens, UniProt Q9Y3E1, E53A); assay: NMR titration of H3K36me3 peptide with HRP3 PWWP E53A; type: binding; conditions: H3 residues 29–41, 20 mM PBS pH 6.9, 298 K
T4 construct: using ^15N-labelled HRP3 PWWP (residues 1–110) dissolved in buffer; 6xHis-SUMO (cleaved yes); made in house; host or cells: Escherichia coli Rosetta (DE3)
T4 sequence (Q9Y3E1 1-110 E53A limits assumed): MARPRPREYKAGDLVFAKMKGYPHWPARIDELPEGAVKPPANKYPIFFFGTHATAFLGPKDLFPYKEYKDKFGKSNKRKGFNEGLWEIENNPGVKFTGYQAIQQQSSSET
Procedure: as §1

HRP3 PWWP aromatic cage = assay: Crystal structure of apo-form HRP3 PWWP (8–94), MES in aromatic cage; type: binding, human; conditions: 0.95 Å
Procedure: Crystallization was conducted using the sitting drop vapour diffusion method by mixing an equal volume of protein and well solution. Apo-form HRP3 PWWP (8–94) was crystallized with crystallization buffer containing 0.2 M ammonium sulfate, 0.1 M MES monohydrate, pH 6.5 and 30% w/v polyethylene glycol monomethyl ether 5000. The crystallization buffer containing 12% 2,3-butanediol was used as the cryoprotectant.
Datasets for all crystals were collected at the beamlines of the Shanghai Synchrotron Radiation Facility (SSRF). The datasets were processed using HKL2000 ([33]), and the structures were solved by molecular replacement using the programme PHENIX ([34]) with the HDGF2 PWWP domain (PDB number: 3EAE) as the search model. The initial model was rebuilt in COOT ([35]) and further refined by PHENIX.

chromatin of HepG2 cells = assay: ChIP-Seq of GFP-HRP3 variants in HepG2 cells; type: cell-based, human
Procedure: (§2) HepG2 (ATCC HB-8065) and HEK293T human embryonic kidney cells (ATCC #CRL-11268) were cultured in Dulbecco’s modified Eagle’s medium supplemented with 10% FBS. Stable overexpression of wild-type or mutant HRP3 in HepG2 cells was performed using FUGW lentiviral constructs expressing wild-type or mutant HRP3. Lentiviral vector infections ([47]) and plasmid transfections ([48]) were performed as previously described. Overexpression efficiency was determined by western blot.
For chromatin immunoprecipitation, HepG2 cells were cross-linked with 1% formaldehyde at 37°C for 10 min and quenched with 0.125 M glycine for 5 min at room temperature. ChIP was performed using a ChIP assay kit (Millipore) according to the manufacturer’s protocol. Antibodies used for ChIP were GFP (gta-20, Chromo-Tek) and H3K36me3 (ab9050, abcam).
ChIP-Seq data were aligned to human genome hg19 using Bowtie 1.0 allowing one mismatch. Two biological replicates were performed and combined for the analysis. Analysis was performed using the Galaxy ([49]) and Cistrome ([50]) Platform and via custom R scripts for Bioconductor ([51]). Peak calling was performed using MACS2. Promoter definitions were downloaded from the UCSC browser ([52]). DNase I hypersensitivity and MNase-Seq data from ENCODE (GSM816662, GSM920557) ([53]) were used.

HepG2 cells = assay: Fluorescence microscopy of GFP-HRP3 in HepG2 cells; type: cell-based, human; conditions: GFP fusion in HepG2 cells
Procedure: as §2
The cells were first fixed with 4% paraformaldehyde in PBS buffer for 30 min at room temperature, and then washed with PBS buffer twice. The cells were permeabilized with 0.5% Triton X-100 in PBS buffer for 10 min followed with PBS washing twice. Then, the cells were incubated with1 μg/ml 4′,6-diamidino-2-phenylindole (DAPI) (C0060, Solarbio) in PBS for 5 min. After washing with PBS buffer twice, the cells were ready for microscopic observation. 3D structural illumination microscopy was performed using N-SIM Super-resolution Microscope System (Nikon) with an objective lens CFI Plan (Apochromat Lambda 40 ×, 0.95 numerical aperture; Nikon).

[4] = target: T5, HRP3 PWWP domain (residues 1–110) (human, UniProt Q9Y3E1 1-110); assay: NMR titration; 2D 1H-15N HSQC chemical shift perturbation of 15N-labelled HRP3 PWWP (1–110); H3 peptide (29–41) added to molar ratios 1:0 to 1:20; 298 K; 20 mM PBS pH 6.9, 20 mM NaCl, 2 mM DTT; single-site ligand-binding fit; conditions: both partners purified
T5 construct: HDGF-related protein 3 (HRP3, HDGFL3), human, residues 1-110 holding the PWWP domain; His-SUMO tag removed by ULP1 protease; also called HRP3 PWWP (1–110); HRP3(1-110); source: E. coli Rosetta (DE3), purified (nickel column, gel filtration), 15N-labelled
T5 sequence (Q9Y3E1 1-110): as the sequence (Q9Y3E1 1-110) above

[5] = target: T6, HRP3 PWWP domain (residues 1–110) Y22A (human, UniProt Q9Y3E1 1-110, Y22A); assay: as above; conditions: both partners purified
T6 construct: HDGF-related protein 3 (HRP3, HDGFL3), human, residues 1-110 holding the PWWP domain, aromatic cage mutant; they are not repeated for the mutants; source: E. coli Rosetta (DE3), purified (nickel column, gel filtration), 15N-labelled
T6 sequence (Q9Y3E1 1-110 Y22A): as the sequence (Q9Y3E1 1-110 Y22A) above

[6] = target: T7, HRP3 PWWP domain (residues 1–110) F48A (human, UniProt Q9Y3E1 1-110, F48A); assay: as above; conditions: both partners purified
T7 construct: HDGF-related protein 3 (HRP3, HDGFL3), human, residues 1-110 holding the PWWP domain, aromatic cage mutant; they are not repeated for the mutants; source: E. coli Rosetta (DE3), purified (nickel column, gel filtration), 15N-labelled
T7 sequence (Q9Y3E1 1-110 F48A): as the sequence (Q9Y3E1 1-110 F48A limits assumed) above

[7] = target: T8, HRP3 PWWP domain (residues 1–110) E53A (human, UniProt Q9Y3E1 1-110, E53A); assay: as above; conditions: both partners purified
T8 construct: HDGF-related protein 3 (HRP3, HDGFL3), human, residues 1-110 holding the PWWP domain; they are not repeated for the mutants; source: E. coli Rosetta (DE3), purified (nickel column, gel filtration), 15N-labelled
T8 sequence (Q9Y3E1 1-110 E53A): as the sequence (Q9Y3E1 1-110 E53A limits assumed) above

HRP3 PWWP (1-110) WT = HRP3 PWWP (1-110) WT (UniProt Q9Y3E1 1-110); assay: MST; MST: 50 mM KCl, 10 mM Na cacodylate pH 6.5, 2 mM DTT, 200 nM FAM-dsDNA; ITC: 10 mM PBS pH 7.0, 50 mM NaCl, 2 mM b-ME, 20 C; nucleosome EMSA: 20 mM Tris pH 7.5; conditions: protein: recombinant; tags: none (His-SUMO removed); label: 5'-FAM (MST); blunt; self-complementary
Chain of HRP3 PWWP (1-110) WT (Q9Y3E1 1-110): as the sequence (Q9Y3E1 1-110) above

[8] = target: HRP3 PWWP K18A/N76A/R78A (KNR-A) (UniProt Q9Y3E1 1-110, K18A;N76A;R78A); assay: as above; conditions: protein: recombinant; tags: none (His-SUMO removed); label: 5'-FAM (MST); blunt; self-complementary
Chain of HRP3 PWWP K18A/N76A/R78A (KNR-A) (Q9Y3E1 1-110 K18A/N76A/R78A): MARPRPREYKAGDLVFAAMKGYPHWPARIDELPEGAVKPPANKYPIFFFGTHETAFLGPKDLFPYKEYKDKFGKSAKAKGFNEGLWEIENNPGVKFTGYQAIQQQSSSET

HRP3 PWWP N76A = HRP3 PWWP N76A (UniProt Q9Y3E1 1-110, N76A); assay: MST; affinity unchanged vs WT; MST: 50 mM KCl, 10 mM Na cacodylate pH 6.5, 2 mM DTT, 200 nM FAM-dsDNA; ITC: 10 mM PBS pH 7.0, 50 mM NaCl, 2 mM b-ME, 20 C; nucleosome EMSA: 20 mM Tris pH 7.5; conditions: protein: recombinant; tags: none (His-SUMO removed); label: 5'-FAM (MST); blunt; self-complementary
Chain of HRP3 PWWP N76A (Q9Y3E1 1-110 N76A): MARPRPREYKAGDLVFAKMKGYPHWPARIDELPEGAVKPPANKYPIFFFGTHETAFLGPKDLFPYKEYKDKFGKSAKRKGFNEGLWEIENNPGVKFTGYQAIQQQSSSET

5′-TATATATATATATATA-3′ (DNA, 5' {FAM}, backbone not given here; double-stranded DNA, FAM label in MST assay) [16-mer-TA, 16-bp TA-rich dsDNA]
fold higher affinity (HRP3 PWWP [1]): 2–3 fold
TA-rich preference by ITC (HRP3 PWWP [2]): TA-rich preference was further verified by ITC-based measurements
average helical twist (HRP3 PWWP [3]; 3DNA): 37.1 °
average propeller twist (HRP3 PWWP [3]; 3DNA): −11.2 °
bending angle towards the minor groove per 6 bps (HRP3 PWWP [3]; Curve+ software): 2.9 °
width of the minor groove, PWWP-binding region (HRP3 PWWP [3]; crystal structure of complex): 10.7 Å
width of the minor groove, PWWP-free region (HRP3 PWWP [3]; crystal structure of complex): 10.8 Å

CC(C)[C@H](NC(=O)CNC(=O)CNC(=O)[C@@H](NC(=O)[C@H](C)NC(=O)[C@@H]1CCCN1C(=O)[C@H](C)N)[C@@H](C)O)C(=O)N[C@@H](CCCC[N+](C)(C)C)C(=O)N[C@@H](CCCCN)C(=O)N1CCC[C@H]1C(=O)N[C@@H](Cc1c[nH]cn1)C(=O)N[C@@H](CCCNC(=N)N)C(=O)N[C@@H](Cc1ccc(O)cc1)C(=O)O [H3K36me3]
Kd (HRP3 PWWP WT): 1.4 ± 0.6 mM
Kd (HRP3 PWWP Y22A): 21 ± 9 mM
Kd (HRP3 PWWP F48A): 9.4 ± 2.1 mM
Kd (HRP3 PWWP E53A): 8 ± 1.9 mM

O=S(=O)(O)CCN1CCOCC1 [MES]
position of bound molecule (HRP3 PWWP aromatic cage): positioned in the middle of the aromatic cage

HRP3: wild-type human HRP3 as GFP fusion protein in HepG2 cells
DNase I hypersensitivity and nucleosome density of HRP3-enriched regions (chromatin of HepG2 cells; ChIP-Seq versus ENCODE DNase I / MNase-Seq data): increased DNase I hypersensitivity and reduced nucleosome density
chromatin binding / recruitment by ChIP-Seq (chromatin of HepG2 cells; ChIP-Seq with GFP antibody, HepG2, two biological replicates combined): enriched at promoters and gene bodies
specific DNA-binding motif enrichment (chromatin of HepG2 cells; ChIP-Seq, HepG2): could not detect the enrichment of a specific DNA-binding motif
subcellular localisation (HepG2 cells): enriched in the nucleus

B1: H3K36me3 histone peptide (H3 residues 29–41) (peptide, UniProt P68431 30-42, looked up)
peptide: APATGGVK(Me3)KPHRY
notes: histone H3, residues 29-41; also called H3K36me3 peptide; H3K36me3-containing peptide
Kd [4]: 1.3 mM
fold loss of binding affinity against wild type [5]: 15 fold
fold loss of binding affinity against wild type [6]: 6.7 fold
fold decrease of binding against wild type [7]: 5.7 fold

B2: 16-mer-TA (dsDNA)
DNA 1: TATATATATATATATA
DNA 2: TATATATATATATATA
Kd (HRP3 PWWP (1-110) WT): 0.0013 mM
binding signal [8]: 58 fold loss vs WT
binding result (HRP3 PWWP N76A): binds
